A value given as a limit tells only on which side of the number the result lay.

Assay type in all cases: biochemical
The target of assay [1] is T1, JAK2 (Homo sapiens, UniProt O60674).
T1 construct: purchased Invitrogen Corporation, Carlsbad, Calif; PV4288
Put plainly: JAK2 Inhibition Assay (Omnia kinase fluorescence peptide substrate assay). The settings on record: averaged IC50 ranges; assay of Example C; 25 μM (Km app) or 1 mM ATP, 5 nM JAK2. Put shortly:
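A 10-point, 3-fold compound series (top 10 μM, 2% DMSO) was tested against 5 nM JAK2 with 10 μM Omnia Y7 substrate and either 1 mM or 25 μM (Km app) ATP. Buffer: pH 7.4 HEPES, MgCl2, Triton X-100, DTT. Sox fluorescence was monitored kinetically for 45 min; IC50 is the concentration giving 50 POC on a 4-parameter fit.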

Assay [2] addresses T2, JAK3 (Homo sapiens, UniProt P52333).
T2 construct: purchased Invitrogen Corporation, Carlsbad, Calif; PV4080
T2 sequence (P52333 1-1124): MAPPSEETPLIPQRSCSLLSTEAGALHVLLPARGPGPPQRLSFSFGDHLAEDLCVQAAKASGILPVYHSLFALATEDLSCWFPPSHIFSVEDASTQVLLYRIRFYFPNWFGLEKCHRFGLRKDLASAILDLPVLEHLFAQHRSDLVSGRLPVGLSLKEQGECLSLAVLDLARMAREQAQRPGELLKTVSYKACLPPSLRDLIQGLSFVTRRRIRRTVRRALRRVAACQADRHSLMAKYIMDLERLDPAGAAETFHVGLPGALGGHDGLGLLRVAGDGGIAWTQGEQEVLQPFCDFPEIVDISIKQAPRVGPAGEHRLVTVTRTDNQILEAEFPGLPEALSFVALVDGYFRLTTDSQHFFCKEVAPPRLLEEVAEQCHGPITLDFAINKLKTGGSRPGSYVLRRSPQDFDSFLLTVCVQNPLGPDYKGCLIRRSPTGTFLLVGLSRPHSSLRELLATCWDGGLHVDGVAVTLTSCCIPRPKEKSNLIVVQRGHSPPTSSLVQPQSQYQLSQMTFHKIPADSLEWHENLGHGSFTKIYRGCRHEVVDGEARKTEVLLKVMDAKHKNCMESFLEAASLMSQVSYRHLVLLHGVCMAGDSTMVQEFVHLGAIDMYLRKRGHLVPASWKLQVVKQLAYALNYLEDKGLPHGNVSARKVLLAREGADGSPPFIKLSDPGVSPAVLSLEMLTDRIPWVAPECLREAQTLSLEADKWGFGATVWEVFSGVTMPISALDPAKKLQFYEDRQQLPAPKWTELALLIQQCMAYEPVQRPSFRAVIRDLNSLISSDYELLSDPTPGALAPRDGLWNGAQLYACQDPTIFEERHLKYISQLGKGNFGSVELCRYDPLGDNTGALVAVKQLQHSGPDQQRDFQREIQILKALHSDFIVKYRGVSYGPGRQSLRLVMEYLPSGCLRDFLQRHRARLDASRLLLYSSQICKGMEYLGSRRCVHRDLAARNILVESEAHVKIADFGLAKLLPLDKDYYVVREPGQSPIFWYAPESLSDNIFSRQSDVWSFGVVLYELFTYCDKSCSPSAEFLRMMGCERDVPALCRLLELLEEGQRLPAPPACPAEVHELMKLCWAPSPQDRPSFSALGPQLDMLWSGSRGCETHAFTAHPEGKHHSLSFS
The experiment in a line: JAK3 Inhibition Assay (Omnia kinase fluorescence peptide substrate assay). Particulars: averaged IC50 ranges; assay of Example D; 10 μM (Km app) or 1 mM ATP, 2.5 nM JAK3. In short, it runs like this:
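Kinase at 2.5 nM with 10 µM Omnia Y7 peptide and 10 µM (Km app) or 1 mM ATP in 25 mM HEPES pH 7.4, 10 mM MgCl2, 1 mM DTT, 0.01% Triton X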

Assay [3] concerns the target T3, JAK1 (Homo sapiens, UniProt P23458).
T3 construct: purchased Invitrogen Corporation, Carlsbad, Calif; PV4775
The experiment in a line: JAK1 Inhibition Assay (Omnia kinase fluorescence peptide substrate assay). Particulars: averaged IC50 ranges; assay of Example B; 40 μM (Km app) or 1 mM ATP, 15 nM JAK1.

The target of assay [4] is T4, Human Tyk2 kinase domain (Homo sapiens, UniProt P29597).
T4 construct: comprising amino acids 886 to 1187 with 10 additional histidine residues; 10xHis (histidine tag) (C, cleaved yes); made in house
T4 sequence (P29597 886-1187): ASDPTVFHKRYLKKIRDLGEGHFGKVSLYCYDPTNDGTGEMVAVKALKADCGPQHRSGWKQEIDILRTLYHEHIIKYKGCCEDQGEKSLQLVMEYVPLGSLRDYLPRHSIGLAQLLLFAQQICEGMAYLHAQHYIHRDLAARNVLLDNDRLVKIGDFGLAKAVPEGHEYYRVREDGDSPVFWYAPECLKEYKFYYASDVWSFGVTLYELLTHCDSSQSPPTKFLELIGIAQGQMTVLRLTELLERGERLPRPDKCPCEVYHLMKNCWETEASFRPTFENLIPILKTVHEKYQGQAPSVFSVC
Put plainly: Tyk2 Inhibition Assay (Omnia kinase fluorescence peptide substrate assay). Particulars: averaged IC50 ranges; assay of Example A; 10 μM (Km app) or 1 mM ATP, 2 nM Tyk2. In short, it runs like this:
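2 nM His-tag-cleaved kinase domain (aa 886–1187) with 8 μM Omnia Y12 peptide, 10 μM (Km app) or 1 mM ATP, pH 7.4 HEPES/10 mM MgCl2, 2% DMSO. Fluorescence (ex 360/em 485 nm) every 50 s for 45 min; IC50 from 4-parameter fit of POC, top dose 10 μM.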

T3 sequence (P23458 whole entry): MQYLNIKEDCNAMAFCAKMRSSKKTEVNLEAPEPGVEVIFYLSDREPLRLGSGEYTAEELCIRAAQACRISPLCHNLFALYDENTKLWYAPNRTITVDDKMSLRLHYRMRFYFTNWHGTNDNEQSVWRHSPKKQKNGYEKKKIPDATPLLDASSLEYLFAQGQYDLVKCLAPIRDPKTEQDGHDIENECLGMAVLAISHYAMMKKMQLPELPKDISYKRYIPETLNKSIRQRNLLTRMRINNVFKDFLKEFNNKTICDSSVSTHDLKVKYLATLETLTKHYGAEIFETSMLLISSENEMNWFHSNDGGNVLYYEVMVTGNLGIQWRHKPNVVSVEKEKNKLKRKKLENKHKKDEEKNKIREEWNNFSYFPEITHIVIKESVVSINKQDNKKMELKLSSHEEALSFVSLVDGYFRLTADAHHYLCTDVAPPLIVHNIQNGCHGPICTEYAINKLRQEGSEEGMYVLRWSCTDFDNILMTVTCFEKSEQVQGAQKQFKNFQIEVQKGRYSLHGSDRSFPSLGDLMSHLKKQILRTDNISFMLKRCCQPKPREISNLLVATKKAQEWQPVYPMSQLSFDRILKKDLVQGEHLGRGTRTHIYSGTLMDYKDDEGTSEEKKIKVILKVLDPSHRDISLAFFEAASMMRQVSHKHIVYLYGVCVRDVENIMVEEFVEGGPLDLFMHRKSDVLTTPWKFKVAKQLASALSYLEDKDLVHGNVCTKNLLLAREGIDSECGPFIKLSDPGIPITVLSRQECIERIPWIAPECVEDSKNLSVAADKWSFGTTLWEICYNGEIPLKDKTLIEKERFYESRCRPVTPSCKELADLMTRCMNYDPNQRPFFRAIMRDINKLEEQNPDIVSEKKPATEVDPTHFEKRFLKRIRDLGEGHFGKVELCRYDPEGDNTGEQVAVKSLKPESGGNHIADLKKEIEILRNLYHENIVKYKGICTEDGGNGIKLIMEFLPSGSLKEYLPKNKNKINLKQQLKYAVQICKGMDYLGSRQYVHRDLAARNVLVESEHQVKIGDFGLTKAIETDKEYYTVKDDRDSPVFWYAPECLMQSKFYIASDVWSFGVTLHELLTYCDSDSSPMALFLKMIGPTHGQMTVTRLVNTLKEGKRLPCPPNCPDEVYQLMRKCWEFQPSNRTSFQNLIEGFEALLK
T1 sequence (O60674 whole entry): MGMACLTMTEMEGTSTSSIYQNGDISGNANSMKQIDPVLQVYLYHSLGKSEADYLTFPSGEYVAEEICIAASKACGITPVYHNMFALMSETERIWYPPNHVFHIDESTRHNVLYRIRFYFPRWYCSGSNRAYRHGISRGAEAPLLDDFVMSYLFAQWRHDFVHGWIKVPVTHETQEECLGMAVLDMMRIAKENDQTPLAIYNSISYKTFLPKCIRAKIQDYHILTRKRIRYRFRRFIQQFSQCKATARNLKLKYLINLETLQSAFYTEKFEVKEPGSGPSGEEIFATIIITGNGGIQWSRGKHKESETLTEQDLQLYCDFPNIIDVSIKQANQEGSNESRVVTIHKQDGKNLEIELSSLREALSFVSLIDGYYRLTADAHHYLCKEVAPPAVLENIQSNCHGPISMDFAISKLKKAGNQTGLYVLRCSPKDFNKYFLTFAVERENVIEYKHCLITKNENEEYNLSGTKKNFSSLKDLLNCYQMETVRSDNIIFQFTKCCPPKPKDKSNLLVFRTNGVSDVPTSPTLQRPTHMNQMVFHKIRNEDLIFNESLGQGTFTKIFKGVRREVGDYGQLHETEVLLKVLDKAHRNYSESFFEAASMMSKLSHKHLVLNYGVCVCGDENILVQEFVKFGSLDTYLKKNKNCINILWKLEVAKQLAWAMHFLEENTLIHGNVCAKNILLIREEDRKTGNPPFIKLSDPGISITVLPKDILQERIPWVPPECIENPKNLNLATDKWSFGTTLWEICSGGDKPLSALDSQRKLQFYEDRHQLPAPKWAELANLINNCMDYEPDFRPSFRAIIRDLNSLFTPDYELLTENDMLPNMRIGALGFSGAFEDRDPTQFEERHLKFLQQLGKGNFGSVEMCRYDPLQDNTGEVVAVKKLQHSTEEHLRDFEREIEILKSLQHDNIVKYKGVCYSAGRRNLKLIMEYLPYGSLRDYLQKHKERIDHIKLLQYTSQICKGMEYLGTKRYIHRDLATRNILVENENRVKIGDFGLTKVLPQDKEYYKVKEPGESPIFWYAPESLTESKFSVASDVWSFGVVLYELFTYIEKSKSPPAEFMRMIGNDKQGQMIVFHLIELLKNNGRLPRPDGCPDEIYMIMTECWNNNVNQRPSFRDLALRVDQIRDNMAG

In the case of `N#CCC1(n2cc(-c3nc(C4CC4)cc4nccn34)cn2)CN(CC(F)(F)F)C1` [Example 149, 2-(3-(4-(7-cyclopropylimidazo[1,2-c]pyrimidin-5-yl)-1H-pyrazol-1-yl)-1-(2,2,2-trifluoroethyl)azetidin-3-yl)acetonitrile], the half-inhibitory concentration (IC50) in assay [1] is above 1000 nM; in assay [2], above 1000 nM; in assay [3], above 1000 nM; in assay [4] it was 100 to 1000 nM.

For `Cn1cc(-c2cc3nccn3c(-c3cnn(C4(CC#N)CC5(CCOCC5)C4)c3)n2)cn1` [Example 150, 2-(2-(4-(7-(1-methyl-1H-pyrazol-4-yl)imidazo[1,2-c]pyrimidin-5-yl)-1H-pyrazol-1-yl)-7-oxaspiro[3.5]nonan-2-yl)acetonitrile], the half-inhibitory concentration (IC50) in assay [1] is 10 to 100 nM; in assay [2], above 1000 nM; in assay [3] it was 100 to 1000 nM; in assay [4] it was below 10 nM.

Consider `Cn1cc(-c2cc3nccn3c(-c3cnn(C4(CC#N)CC5(CCCCC5)C4)c3)n2)cn1` [Example 151, 2-(2-(4-(7-(1-methyl-1H-pyrazol-4-yl)imidazo[1,2-c]pyrimidin-5-yl)-1H-pyrazol-1-yl)spiro[3.5]nonan-2-yl)acetonitrile], for which the IC50 in assay [1] was 10 to 100 nM; in assay [2], 100 to 1000 nM; in assay [3], 100 to 1000 nM; in assay [4] it was below 10 nM.

On to `Cn1cc(-c2cc3ncc(F)n3c(-c3cnn(C(CC#N)C4CC4)c3)n2)cn1` (centres unmarked) [Example 152, 3-cyclopropyl-3-(4-(3-fluoro-7-(1-methyl-1H-pyrazol-4-yl)imidazo[1,2-c]pyrimidin-5-yl)-1H-pyrazol-1-yl)propanenitrile], for which the half-inhibitory concentration (IC50) was 10 to 100 nM in assay [1], 100 to 1000 nM in assay [2], 100 to 1000 nM in assay [3] and below 10 nM in assay [4].

Take `N#CCC1(n2cc(-c3nc(-c4cnn(C5COC5)c4)cc4ncc(Cl)n34)cn2)CN(CC(F)(F)F)C1` [Example 153, 2-(3-(4-(3-chloro-7-(1-(oxetan-3-yl)-1H-pyrazol-4-yl)imidazo[1,2-c]pyrimidin-5-yl)-1H-pyrazol-1-yl)-1-(2,2,2-trifluoroethyl)azetidin-3-yl)acetonitrile]: the IC50 was 10 to 100 nM in assay [1], 100 to 1000 nM in assay [2], 100 to 1000 nM in assay [3] and below 10 nM in assay [4].

Take `Cn1cc(-c2cc3ncc(F)n3c(-c3cnn(C4(CC#N)CN(S(=O)(=O)C(F)(F)F)C4)c3)n2)cn1` [Example 154, 2-(3-(4-(3-fluoro-7-(1-methyl-1H-pyrazol-4-yl)imidazo[1,2-c]pyrimidin-5-yl)-1H-pyrazol-1-Y1)-1-((trifluoromethyl)sulfonyl)azetidin-3-yl)acetonitrile]: the IC50 in assay [1] is below 10 nM; in assay [2] it was 100 to 1000 nM; in assay [3] it was 10 to 100 nM; in assay [4], below 10 nM.

On to `Cn1cc(-c2cc3ncc(Cl)n3c(-c3cnn(C4(CC#N)CN(S(=O)(=O)C(F)(F)F)C4)c3)n2)cn1` [Example 155, 2-(3-(4-(3-chloro-7-(1-methyl-1H-pyrazol-4-yl)imidazo[1,2-c]pyrimidin-5-yl)-1H-pyrazol-1-yl)-1-((trifluoromethyl)sulfonyl)azetidin-3-yl)acetonitrile], for which the IC50 in assay [1] is 10 to 100 nM; in assay [2] it was 100 to 1000 nM; in assay [3], 10 to 100 nM; in assay [4], below 10 nM.

On to `N#CCC1(n2cc(-c3nc(-c4cnn(C5COC5)c4)cc4nccn34)cn2)CN(CC(F)F)C1` [Example 156, 2-(1-(2,2-difluoroethyl)-3-(4-(7-(1-(oxetan-3-yl)-1H-pyrazol-4-yl)imidazo[1,2-c]pyrimidin-5-yl)-1H-pyrazol-1-yl)azetidin-3-yl)acetonitrile], for which the IC50 in assay [1] was 10 to 100 nM; in assay [2] it was above 1000 nM; in assay [3] it was 100 to 1000 nM; in assay [4], below 10 nM.

Consider `N#CCC1(n2cc(-c3nc(-c4cnn(C5COC5)c4)cc4nccn34)cn2)CN(CC(F)(F)C(F)(F)F)C1` [Example 157, 2-(3-(4-(7-(1-(oxetan-3-yl)-1H-pyrazol-4-yl)imidazo[1,2-c]pyrimidin-5-yl)-1H-pyrazol-1-yl)-1-(2,2,3,3,3-pentafluoropropyl)azetidin-3-yl)acetonitrile], for which the half-inhibitory concentration (IC50) in assay [1] was 10 to 100 nM; in assay [2] it was above 1000 nM; in assay [3], 100 to 1000 nM; in assay [4] it was 10 to 100 nM.

Regarding `COc1ccc(-c2cc3nccn3c(-c3cnn(C4(CC#N)CN(S(=O)(=O)C(F)(F)F)C4)c3)n2)cc1` [Example 158, 2-(3-(4-(7-(4-methoxyphenyl)imidazo[1,2-c]pyrimidin-5-yl)-1H-pyrazol-1-yl)-1-(trifluoromethylsulfonyl)azetidin-3-yl)acetonitrile], the 50% inhibitory concentration (IC50) was 10 to 100 nM in assay [1], 100 to 1000 nM in assay [2], below 10 nM in assay [3] and below 10 nM in assay [4].

For the molecule `COc1ccc(-c2cc3nccn3c(-c3cnn(C4(CC#N)CN(S(=O)(=O)C5CC5)C4)c3)n2)cc1` [Example 159, 2-(1-(cyclopropylsulfonyl)-3-(4-(7-(4-methoxyphenyl)imidazo[1,2-c]pyrimidin-5-yl)-1H-pyrazol-1-yl)azetidin-3-yl)acetonitrile], the 50% inhibitory concentration (IC50) in assay [1] is 10 to 100 nM; in assay [2] it was above 1000 nM; in assay [3] it was 10 to 100 nM; in assay [4], below 10 nM.

For `Cn1cc(-c2cc3nccn3c(-c3cnn(C4(CC#N)CC5(CCC5)C4)c3)n2)cn1` [Example 160, 2-(2-(4-(7-(1-methyl-1H-pyrazol-4-yl)imidazo[1,2-c]pyrimidin-5-yl)-1H-pyrazol-1-yl)spiro[3.3]heptan-2-yl)acetonitrile], the IC50 was 10 to 100 nM in assay [1], 100 to 1000 nM in assay [2], 100 to 1000 nM in assay [3] and below 10 nM in assay [4].

`Cn1cc(-c2cc3nccn3c(-c3cnn(C4(CC#N)CC5(CCCC5)C4)c3)n2)cn1` [Example 161, 2-(2-(4-(7-(1-methyl-1H-pyrazol-4-yl)imidazo[1,2-c]pyrimidin-5-yl)-1H-pyrazol-1-yl)spiro[3.4]octan-2-yl)acetonitrile]: the IC50 was 10 to 100 nM in assay [1], above 1000 nM in assay [2], 100 to 1000 nM in assay [3] and below 10 nM in assay [4].

For the molecule `N#CCC1(n2cc(-c3nc(-c4cnn(C5COC5)c4)cc4nccn34)cn2)CC2(CCC2)C1` [Example 162, 2-(2-(4-(7-(1-(oxetan-3-yl)-1H-pyrazol-4-yl)imidazo[1,2-c]pyrimidin-5-yl)-1H-pyrazol-1-yl)spiro[3.3]heptan-2-yl)acetonitrile], the half-inhibitory concentration (IC50) in assay [1] was 10 to 100 nM; in assay [2], 100 to 1000 nM; in assay [3], 100 to 1000 nM; in assay [4], below 10 nM.

For the origin of these results see patent publication US8962596B2 (Array BioPharma Inc., priority 2010, dated 2015).
